Results published in patent publication US7897770B2 (General Electric Company, priority 2007, dated 2011).

Target: T1, VMAT-2 (Homo sapiens, UniProt Q05940)
T1 construct: Novascreen Biosciences Corporation (contract assay provider) protocol Cat. No. 100-0751
Test: VMAT-2 binding affinity measurement, Novascreen protocol Cat. No. 100-0751
Settings: for Ki: VMAT-2 binding affinity
Description: VMAT-2 binding affinity measurements were carried out by Novascreen Biosciences Corporation (Hanover, Md., USA) using protocol Cat. No. 100-0751. Novascreen, Inc. is a commercial provider of biological assays for the pharmaceutical industry.

T1 sequence (Q05940 whole entry, species assumed): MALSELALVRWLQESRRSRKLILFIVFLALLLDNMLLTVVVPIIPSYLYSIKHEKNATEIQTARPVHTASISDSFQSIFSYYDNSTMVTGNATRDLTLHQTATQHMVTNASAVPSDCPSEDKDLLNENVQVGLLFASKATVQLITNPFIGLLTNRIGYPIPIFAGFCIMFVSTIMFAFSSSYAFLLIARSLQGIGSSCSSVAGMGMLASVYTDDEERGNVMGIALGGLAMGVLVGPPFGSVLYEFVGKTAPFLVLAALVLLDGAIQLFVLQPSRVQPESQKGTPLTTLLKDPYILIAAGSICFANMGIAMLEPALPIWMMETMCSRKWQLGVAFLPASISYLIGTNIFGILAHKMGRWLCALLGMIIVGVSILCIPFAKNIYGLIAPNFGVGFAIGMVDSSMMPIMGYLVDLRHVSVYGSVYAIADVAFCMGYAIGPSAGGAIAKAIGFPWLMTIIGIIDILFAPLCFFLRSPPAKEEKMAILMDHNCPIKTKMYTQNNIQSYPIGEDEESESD

Row | SMILES | VMAT-2 binding affinity, in words | Ki [nM]
1 | COc1cc2c(cc1OC)[C@H]1C[C@@H](OCCCF)[C@H](CC(C)C)CN1CC2 [Compound 23] | very high binding affinity | 6.4
2 | COc1cc2c(cc1OC)[C@H]1C[C@@H](OCCF)[C@H](CC(C)C)CN1CC2 [Compound 22] | very high binding affinity | 3.2
